Patent US9074014B2 (Ipsen Pharma S.A.S., priority 2008, dated 2015)
Where a SMILES comes first, the peptide text is derived from it. Where no end group is shown, it is not given here. [ ]: non-standard residue; d: D form. Ac6c = NC1(C(=O)O)CCCCC1; Nle = CCCC[C@H](N)C(=O)O; Ac5c = NC1(C(=O)O)CCCC1; Aib = CC(C)(N)C(=O)O

How the values were obtained:
[1] = Human plasma half-life assay; type: in vitro ADME; details: human plasma, 37° C., LC-MS; for half-life at 0.1 mg/ml: read-out: Human Plasma T½ (converted)
[2] = Rat plasma half-life assay; type: in vitro ADME; details: rat plasma, 37° C., LC-MS; for half-life at 0.1 mg/ml: read-out: Rat Plasma T½ (converted)

Row | Molecule | half-life at 0.1 mg/ml [1] [h] | half-life at 0.1 mg/ml [2] [h] | Human Plasma T½ [1] [h] | Rat Plasma T½ [2] [h]
1 | CCCC[C@H](NC(=O)[C@H](C)NC(=O)[C@@H](NC(=O)[C@H](CO)NC(=O)[C@H](Cc1ccc(O)cc1)NC(=O)[C@H](CC(=O)O)NC(=O)[C@H](CO)NC(=O)C1(NC(=O)[C@H](Cc2ccccc2)NC(=O)[C@@H](NC(=O)CNC(=O)[C@H](CCC(=O)O)NC(=O)C(C)(C)NC(=O)[C@@H](N)Cc2ccc(O)cc2)[C@@H](C)O)CCCCC1)[C@@H](C)CC)C(=O)N[C@@H](CC(=O)O)C(=O)N[C@@H](CCCCN)C(=O)N[C@H](C(=O)N[C@@H](Cc1c[nH]cn1)C(=O)N[C@@H](CCC(N)=O)C(=O)N[C@@H](CCC(N)=O)C(=O)N[C@@H](CC(=O)O)C(=O)N[C@@H](Cc1ccccc1)C(=O)N[C@H](C(=O)N[C@@H](CC(N)=O)C(=O)N[C@@H](Cc1c[nH]c2ccccc12)C(=O)N[C@@H](CC(C)C)C(=O)N[C@@H](CC(C)C)C(=O)N[C@@H](C)C(=O)N[C@@H](CCC(N)=O)C(=O)N[C@@H](CCCCN)C(N)=O)C(C)C)[C@@H](C)CC [Example 31, (Aib^2, A6c^7, Nle^14)hGIP(1-30)-NH2] (H-Y[Aib]EGTF[Ac6c]SDYSIA[Nle]DKIHQQDFVNWLLAQK-NH2; N-terminus assumed) | 36.5 | 31.4 | – | –
2 | CCCC[C@H](NC(=O)[C@H](C)NC(=O)[C@@H](NC(=O)[C@H](CO)NC(=O)[C@H](Cc1ccc(O)cc1)NC(=O)[C@H](CC(=O)O)NC(=O)[C@H](CO)NC(=O)C1(NC(=O)[C@H](Cc2ccccc2)NC(=O)[C@@H](NC(=O)CNC(=O)[C@H](CCC(=O)O)NC(=O)C2(NC(=O)[C@@H](N)Cc3ccc(O)cc3)CCCC2)[C@@H](C)O)CCCC1)[C@@H](C)CC)C(=O)N[C@@H](CC(=O)O)C(=O)N[C@@H](CCCCN)C(=O)N[C@H](C(=O)N[C@@H](Cc1c[nH]cn1)C(=O)N[C@@H](CCC(N)=O)C(=O)N[C@@H](CCC(N)=O)C(=O)N[C@@H](CC(=O)O)C(=O)N[C@@H](Cc1ccccc1)C(=O)N[C@H](C(=O)N[C@@H](CC(N)=O)C(=O)N[C@@H](Cc1c[nH]c2ccccc12)C(=O)N[C@@H](CC(C)C)C(=O)N[C@@H](CC(C)C)C(=O)N[C@@H](C)C(=O)N[C@@H](CCC(N)=O)C(=O)N[C@@H](CCCCN)C(N)=O)C(C)C)[C@@H](C)CC [Example 34, (A5c^2,7, Nle^14)hGIP(1-30)-NH2] (H-Y[Ac5c]EGTF[Ac5c]SDYSIA[Nle]DKIHQQDFVNWLLAQK-NH2; N-terminus assumed) | > 48 | 23 | – | –
3 | Y[Aib]EGTF[Ac5c]SDYSIAMDKIHQQDFVNWLLAQKGKKNDWKHNITQ-OH [Example 6, (Aib^2, A5c^7)hGIP(1-42)-OH] | > 48 | 8.6 | – | –
4 | Y[Aib]EGTF[Ac6c]SDYSIA[Nle]DK[Ac6c]HQQDFVNWLLAQKGKKNDWKHNITQ-OH [Example 37, (Aib^2, A6c^7, 17, Nle^14)hGIP(1-42)-OH] | > 48 | 14 | – | –
5 | Y[Aib]EGTFISDY[Aib]IA[Nle]DKIHQQDFVNWLLAQKGKKNDWKHNITQ-OH [Example 45, (Aib^2, 11, Nle^14)hGIP(1-42)-OH] | 18.2 | 11.6 | – | –
6 | CC[C@H](C)[C@H](NC(=O)[C@H](CO)NC(=O)[C@H](Cc1ccc(O)cc1)NC(=O)[C@H](CC(=O)O)NC(=O)[C@H](CO)NC(=O)[C@@H](NC(=O)[C@H](Cc1ccccc1)NC(=O)C(C)(C)NC(=O)CNC(=O)[C@H](CCC(=O)O)NC(=O)C(C)(C)NC(=O)[C@@H](N)Cc1ccc(O)cc1)[C@@H](C)CC)C(=O)N[C@@H](C)C(=O)N[C@@H](CCSC)C(=O)N[C@@H](CC(=O)O)C(=O)N[C@@H](CCCCN)C(=O)N[C@H](C(=O)N[C@@H](Cc1c[nH]cn1)C(=O)N[C@@H](CCC(N)=O)C(=O)N[C@@H](CCC(N)=O)C(=O)N[C@@H](CC(=O)O)C(=O)N[C@@H](Cc1ccccc1)C(=O)N[C@H](C(=O)N[C@@H](CC(N)=O)C(=O)N[C@@H](Cc1c[nH]c2ccccc12)C(=O)N[C@@H](CC(C)C)C(=O)N[C@@H](CC(C)C)C(=O)N[C@@H](C)C(=O)N[C@@H](CCC(N)=O)C(=O)N[C@@H](CCCCN)C(N)=O)C(C)C)[C@@H](C)CC [Example 15, (Aib^2, 5)hGIP(1-30)-NH2] | 28.6 | 46.5 | – | –
7 | CCCC[C@H](NC(=O)[C@H](C)NC(=O)[C@@H](NC(=O)C1(NC(=O)[C@H](Cc2ccc(O)cc2)NC(=O)[C@H](CC(=O)O)NC(=O)[C@H](CO)NC(=O)[C@@H](NC(=O)[C@H](Cc2ccccc2)NC(=O)[C@@H](NC(=O)CNC(=O)[C@H](CCC(=O)O)NC(=O)C(C)(C)NC(=O)[C@@H](N)Cc2ccc(O)cc2)[C@@H](C)O)[C@@H](C)CC)CCCC1)[C@@H](C)CC)C(=O)N[C@@H](CC(=O)O)C(=O)N[C@@H](CCCCN)C(=O)N[C@H](C(=O)N[C@@H](Cc1c[nH]cn1)C(=O)N[C@@H](CCC(N)=O)C(=O)N[C@@H](CCC(N)=O)C(=O)N[C@@H](CC(=O)O)C(=O)N[C@@H](Cc1ccccc1)C(=O)N[C@H](C(=O)N[C@@H](CC(N)=O)C(=O)N[C@@H](Cc1c[nH]c2ccccc12)C(=O)N[C@@H](CC(C)C)C(=O)N[C@@H](CC(C)C)C(=O)N[C@@H](C)C(=O)N[C@@H](CCC(N)=O)C(=O)N[C@@H](CCCCN)C(N)=O)C(C)C)[C@@H](C)CC [Example 50, (Aib^2, A5c^11, Nle^14)hGIP(1-30)-NH2] (H-Y[Aib]EGTFISDY[Ac5c]IA[Nle]DKIHQQDFVNWLLAQK-NH2; N-terminus assumed) | – | – | 48.1 | >54
8 | CC[C@H](C)[C@H](NC(=O)[C@H](CO)NC(=O)[C@H](Cc1ccc(O)cc1)NC(=O)[C@H](CC(=O)O)NC(=O)[C@H](CO)NC(=O)C1(NC(=O)[C@H](Cc2ccccc2)NC(=O)[C@@H](NC(=O)CNC(=O)[C@H](CCC(=O)O)NC(=O)C(C)(C)NC(=O)[C@@H](N)Cc2ccc(O)cc2)[C@@H](C)O)CCCC1)C(=O)N[C@@H](C)C(=O)N[C@@H](CCSC)C(=O)N[C@@H](CC(=O)O)C(=O)N[C@@H](CCCCN)C(=O)N[C@H](C(=O)N[C@@H](Cc1c[nH]cn1)C(=O)N[C@@H](CCC(N)=O)C(=O)N[C@@H](CCC(N)=O)C(=O)N[C@@H](CC(=O)O)C(=O)N[C@@H](Cc1ccccc1)C(=O)N[C@H](C(=O)N[C@@H](CC(N)=O)C(=O)N[C@@H](Cc1c[nH]c2ccccc12)C(=O)N[C@@H](CC(C)C)C(=O)N[C@@H](CC(C)C)C(=O)N[C@@H](C)C(=O)N[C@@H](CCC(N)=O)C(=O)N[C@@H](CCCCN)C(N)=O)C(C)C)[C@@H](C)CC [Example 12, (Aib^2, A5c^7)hGIP(1-30)-NH2] | 20.5 | > 48 | – | –
9 | Y[Aib]E[Aib]TFISDYSIAMDKIHQQDFVNWLLAQKGKKNDWKHNITQ-OH [Example 10, (Aib^2, 4)hGIP(1-42)-OH] | > 48 | 4 | – | –
10 | Y[Aib]EGTFISDY[Ac5c]IA[Ac6c]DKIHQQDFVNWLLAQKGKKNDWKHNITQ-OH [Example 61, (Aib^2, A5c^11, A6c^14)hGIP(1-42)-OH] | > 48 | 45.3 | – | –
